One may read the IC50 as the concentration that inhibits the measured activity by half. The inhibition is the change of the read-out against control, counted positive when it falls.

Our source for the IC50 and inhibition values is ChEMBL document CHEMBL3102714 (J Med Chem, 2013).

Experiment [1] has as its target T1, Neuronal acetylcholine receptor; alpha9/alpha10 (Homo sapiens, UniProt Q9GZZ6+Q9UGM1). Briefly: Inhibition of alpha9alpha10 (unknown origin) nAChR. The experiment is classed as protein-complex assay.
The target of experiment [2] is T2, Neuronal acetylcholine receptor subunit alpha-7 (Homo sapiens, UniProt P36544). In words: Inhibition of alpha7 (unknown origin) nAChR.
T2 sequence (P36544 whole entry): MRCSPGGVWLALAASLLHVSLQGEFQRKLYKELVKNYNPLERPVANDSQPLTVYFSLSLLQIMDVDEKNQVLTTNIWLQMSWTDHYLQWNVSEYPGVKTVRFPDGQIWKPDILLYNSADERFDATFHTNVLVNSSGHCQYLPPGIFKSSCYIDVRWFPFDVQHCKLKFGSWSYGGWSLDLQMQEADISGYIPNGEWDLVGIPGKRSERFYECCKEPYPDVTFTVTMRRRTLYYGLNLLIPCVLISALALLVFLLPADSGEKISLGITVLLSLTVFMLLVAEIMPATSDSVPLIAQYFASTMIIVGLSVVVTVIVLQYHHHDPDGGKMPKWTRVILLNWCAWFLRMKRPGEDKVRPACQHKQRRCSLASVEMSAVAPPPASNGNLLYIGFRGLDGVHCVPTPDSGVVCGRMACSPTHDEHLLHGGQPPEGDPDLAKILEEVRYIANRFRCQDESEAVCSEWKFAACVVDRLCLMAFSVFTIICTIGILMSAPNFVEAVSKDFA
The target of experiment [3] is T3, Neuronal acetylcholine receptor; alpha3/beta4 (Homo sapiens, UniProt P30926+P32297). In words: Inhibition of human alpha3beta4 nAChR. In kind it is protein-complex assay.
T3 sequence (P30926 whole entry): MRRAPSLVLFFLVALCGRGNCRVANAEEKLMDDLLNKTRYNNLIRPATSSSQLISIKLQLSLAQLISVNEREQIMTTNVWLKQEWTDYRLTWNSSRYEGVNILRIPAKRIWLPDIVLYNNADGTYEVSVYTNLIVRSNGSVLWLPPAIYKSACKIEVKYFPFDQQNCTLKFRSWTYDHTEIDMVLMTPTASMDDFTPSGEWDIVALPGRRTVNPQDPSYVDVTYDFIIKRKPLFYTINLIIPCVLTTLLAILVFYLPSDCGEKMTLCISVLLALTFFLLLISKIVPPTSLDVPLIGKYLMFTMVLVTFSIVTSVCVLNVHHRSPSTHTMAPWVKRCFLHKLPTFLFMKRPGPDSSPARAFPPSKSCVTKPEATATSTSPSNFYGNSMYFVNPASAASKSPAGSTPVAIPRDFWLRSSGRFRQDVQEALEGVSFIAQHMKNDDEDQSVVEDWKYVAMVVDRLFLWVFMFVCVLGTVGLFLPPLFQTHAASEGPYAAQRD
T3 sequence (P32297 whole entry): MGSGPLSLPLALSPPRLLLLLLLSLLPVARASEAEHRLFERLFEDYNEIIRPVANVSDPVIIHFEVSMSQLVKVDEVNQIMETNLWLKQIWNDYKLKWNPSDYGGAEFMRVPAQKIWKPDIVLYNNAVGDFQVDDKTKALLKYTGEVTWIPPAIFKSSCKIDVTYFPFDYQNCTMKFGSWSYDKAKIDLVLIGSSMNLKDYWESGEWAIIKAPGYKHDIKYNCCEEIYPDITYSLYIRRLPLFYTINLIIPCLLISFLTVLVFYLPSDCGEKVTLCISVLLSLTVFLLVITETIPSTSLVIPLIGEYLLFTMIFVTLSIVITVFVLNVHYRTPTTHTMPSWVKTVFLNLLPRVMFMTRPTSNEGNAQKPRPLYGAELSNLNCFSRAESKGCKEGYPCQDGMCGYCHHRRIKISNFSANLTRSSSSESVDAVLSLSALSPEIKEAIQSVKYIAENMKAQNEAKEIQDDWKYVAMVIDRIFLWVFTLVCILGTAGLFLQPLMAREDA
Experiment [4] addresses T1, Neuronal acetylcholine receptor; alpha9/alpha10. Briefly: Inhibition of human alpha9alpha10 nAChR. In kind it is protein-complex assay.
The target in experiment [5] is T2, Neuronal acetylcholine receptor subunit alpha-7. Briefly: Inhibition of human alpha7 nAChR.
Experiment [6] concerns the target T4, Neuronal acetylcholine receptor; alpha3/beta2 (Homo sapiens, UniProt P17787+P32297). In words: Inhibition of human alpha3beta2 nAChR. In kind it is protein-complex assay.
Experiment [7] deals with T5, Neuronal acetylcholine receptor; alpha3/beta4 (Rattus norvegicus, UniProt P04757+P12392). Briefly: Inhibition of rat alpha3beta4 nAChR expressed in Xenopus laevis oocytes assessed as inhibition of ACh-induced current after 2 to 4 days by voltage clamp electrophysiology method. The experiment is classed as cell-based.
T5 sequence (P04757 whole entry): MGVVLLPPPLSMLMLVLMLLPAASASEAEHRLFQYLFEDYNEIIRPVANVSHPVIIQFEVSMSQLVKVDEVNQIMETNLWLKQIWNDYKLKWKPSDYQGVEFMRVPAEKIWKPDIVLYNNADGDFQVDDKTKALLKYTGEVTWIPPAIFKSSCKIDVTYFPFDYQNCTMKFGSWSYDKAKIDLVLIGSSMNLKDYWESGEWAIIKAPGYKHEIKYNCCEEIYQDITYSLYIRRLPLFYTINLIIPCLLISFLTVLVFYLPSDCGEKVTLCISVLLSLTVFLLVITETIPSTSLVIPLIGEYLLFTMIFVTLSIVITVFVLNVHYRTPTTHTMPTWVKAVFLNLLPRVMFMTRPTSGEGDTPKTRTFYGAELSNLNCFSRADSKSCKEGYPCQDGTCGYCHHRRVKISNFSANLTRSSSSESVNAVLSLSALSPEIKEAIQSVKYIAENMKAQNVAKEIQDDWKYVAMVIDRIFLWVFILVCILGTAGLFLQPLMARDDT
T5 sequence (P12392 whole entry): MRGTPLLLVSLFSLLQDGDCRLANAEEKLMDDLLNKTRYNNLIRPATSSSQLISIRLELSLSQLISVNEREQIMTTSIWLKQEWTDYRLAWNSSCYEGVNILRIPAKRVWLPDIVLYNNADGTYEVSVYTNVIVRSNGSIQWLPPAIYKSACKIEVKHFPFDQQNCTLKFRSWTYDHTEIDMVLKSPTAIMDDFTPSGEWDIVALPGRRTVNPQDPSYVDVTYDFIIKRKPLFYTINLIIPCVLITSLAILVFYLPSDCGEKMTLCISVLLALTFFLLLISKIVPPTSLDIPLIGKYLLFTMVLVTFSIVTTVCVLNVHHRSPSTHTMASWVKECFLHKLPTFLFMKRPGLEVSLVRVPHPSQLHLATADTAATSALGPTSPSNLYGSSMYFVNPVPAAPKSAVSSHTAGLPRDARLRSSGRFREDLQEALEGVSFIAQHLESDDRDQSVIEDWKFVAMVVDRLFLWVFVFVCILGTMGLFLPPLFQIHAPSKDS
Experiment [8] deals with Neuronal acetylcholine receptor subunit alpha-7 (Rattus norvegicus) (UniProt Q05941). Briefly: Inhibition of rat alpha7 nAChR expressed in Xenopus laevis assessed as inhibition of ACh-induced current at 10 uM after 2 to 4 days by voltage clamp electrophysiology method.
Experiment [9] has as its target Neuronal acetylcholine receptor; alpha4/beta4 (Rattus norvegicus) (UniProt P09483+P12392). In words: Inhibition of rat alpha4beta4 nAChR expressed in Xenopus laevis oocytes assessed as inhibition of ACh-induced current at 10 uM after 2 to 4 days by voltage clamp electrophysiology method. In kind it is cell-based.
Experiment [10] concerns the target Neuronal acetylcholine receptor; alpha3/beta2 (Rattus norvegicus) (UniProt P04757+P12390). In words: Inhibition of rat alpha3beta2 nAChR expressed in Xenopus laevis oocytes assessed as inhibition of ACh-induced current at 10 uM after 2 to 4 days by voltage clamp electrophysiology method. In kind it is cell-based.
Experiment [11] concerns the target Nicotinic acetylcholine receptor alpha9/alpha10 (Rattus norvegicus) (UniProt P43144+Q9JLB5). In words: Inhibition of rat alpha9alpha10 nAChR expressed in Xenopus laevis oocytes assessed as inhibition of ACh-induced current at 10 uM after 2 to 4 days by voltage clamp electrophysiology method. The experiment is classed as cell-based.
The target in experiment [12] is Neuronal acetylcholine receptor; alpha3/beta4 (Rattus norvegicus) (UniProt P04757+P12392). In words: Inhibition of rat alpha3beta4 nAChR expressed in Xenopus laevis oocytes assessed as inhibition of ACh-induced current at 1 uM after 2 to 4 days by voltage clamp electrophysiology method. The experiment is classed as cell-based.
The target of experiment [13] is T6, Nicotinic acetylcholine receptor alpha6/alpha3/beta2/beta3 (Rattus norvegicus, UniProt P04757+P12390+P12391+P43143). In words: Inhibition of rat alpha6/alpha3beta2beta3 nAChR expressed in Xenopus laevis oocytes assessed as inhibition of ACh-induced current by voltage clamp electrophysiology method. The experiment is classed as cell-based.
T6 sequence (P04757 whole entry): as the sequence (P04757 whole entry) above
T6 sequence (P12390 whole entry): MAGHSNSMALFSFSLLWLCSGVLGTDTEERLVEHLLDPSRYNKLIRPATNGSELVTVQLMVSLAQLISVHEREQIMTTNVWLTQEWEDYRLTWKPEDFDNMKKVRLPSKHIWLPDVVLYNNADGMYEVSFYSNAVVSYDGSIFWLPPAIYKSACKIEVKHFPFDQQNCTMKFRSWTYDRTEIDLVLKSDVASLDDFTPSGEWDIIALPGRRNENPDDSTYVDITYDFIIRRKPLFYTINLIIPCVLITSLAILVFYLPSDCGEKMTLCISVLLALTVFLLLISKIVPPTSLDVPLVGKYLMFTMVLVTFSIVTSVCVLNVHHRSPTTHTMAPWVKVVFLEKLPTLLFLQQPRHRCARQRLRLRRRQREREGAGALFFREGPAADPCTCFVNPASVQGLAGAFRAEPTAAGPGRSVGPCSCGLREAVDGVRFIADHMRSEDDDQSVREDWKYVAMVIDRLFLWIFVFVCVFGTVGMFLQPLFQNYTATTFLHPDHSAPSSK
T6 sequence (P12391 whole entry): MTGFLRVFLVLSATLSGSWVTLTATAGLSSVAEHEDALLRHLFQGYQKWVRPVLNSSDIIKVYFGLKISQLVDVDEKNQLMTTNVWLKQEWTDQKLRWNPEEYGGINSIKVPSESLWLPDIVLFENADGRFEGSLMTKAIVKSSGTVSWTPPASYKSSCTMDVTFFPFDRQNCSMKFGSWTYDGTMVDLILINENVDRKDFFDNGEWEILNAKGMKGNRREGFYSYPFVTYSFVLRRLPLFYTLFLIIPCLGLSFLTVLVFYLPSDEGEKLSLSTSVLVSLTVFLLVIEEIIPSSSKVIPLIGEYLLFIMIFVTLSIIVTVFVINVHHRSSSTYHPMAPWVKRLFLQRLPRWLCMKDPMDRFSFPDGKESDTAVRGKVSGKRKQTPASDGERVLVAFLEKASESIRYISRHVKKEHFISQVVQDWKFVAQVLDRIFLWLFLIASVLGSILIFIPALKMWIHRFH
T6 sequence (P43143 whole entry): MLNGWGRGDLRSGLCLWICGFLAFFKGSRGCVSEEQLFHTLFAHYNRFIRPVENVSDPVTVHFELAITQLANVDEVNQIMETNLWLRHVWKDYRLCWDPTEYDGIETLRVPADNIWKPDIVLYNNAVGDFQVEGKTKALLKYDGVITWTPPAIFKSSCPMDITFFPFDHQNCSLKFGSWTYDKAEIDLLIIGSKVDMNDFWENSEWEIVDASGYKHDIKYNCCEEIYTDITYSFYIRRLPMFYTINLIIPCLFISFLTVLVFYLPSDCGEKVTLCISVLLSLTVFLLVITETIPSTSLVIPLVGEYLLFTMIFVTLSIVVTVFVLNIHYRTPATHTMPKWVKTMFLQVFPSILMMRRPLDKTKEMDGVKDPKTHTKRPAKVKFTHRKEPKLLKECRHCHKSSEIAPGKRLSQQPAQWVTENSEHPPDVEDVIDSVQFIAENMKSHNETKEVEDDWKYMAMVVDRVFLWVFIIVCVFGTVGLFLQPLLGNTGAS
The target in experiment [14] is T2, Neuronal acetylcholine receptor subunit alpha-7. Briefly: Inhibition of alpha7 nAChR (unknown origin) expressed in Xenopus laevis oocytes at 1 uM by two-electrode voltage clamp method. The experiment is classed as cell-based.
In experiment [15] the target is T3, Neuronal acetylcholine receptor; alpha3/beta4. Briefly: Inhibition of alpha3beta4 nAChR (unknown origin) expressed in Xenopus laevis oocytes by two-electrode voltage clamp method. In kind it is cell-based. A general note: Two-electrode voltage clamp is typically applied to oocytes expressing channels or transporters.
Experiment [16] has the same target. In words: Inhibition of alpha3beta4 nAChR (unknown origin) expressed in Xenopus laevis oocytes at 1uM by two-electrode voltage clamp method. In kind it is cell-based.
The target of experiment [17] is T2, Neuronal acetylcholine receptor subunit alpha-7. In words: Inhibition of alpha7 nAChR (unknown origin) expressed in Xenopus laevis oocytes by two-electrode voltage clamp method. In kind it is cell-based.
In experiment [18] the target is Neuronal acetylcholine receptor; alpha9/alpha10 (Homo sapiens) (UniProt Q9UGM1+Q9GZZ6). In words: Inhibition of alpha9alpha10 nAChR (unknown origin) expressed in Xenopus laevis oocytes at 1 uM by voltage clamp electrophysiology method. The experiment is classed as cell-based.
Experiment [19] has as its target T4, Neuronal acetylcholine receptor; alpha3/beta2. In words: Inhibition of alpha3beta2 nAChR (unknown origin) expressed in Xenopus laevis oocytes at 1uM by two-electrode voltage clamp method. The experiment is classed as cell-based.
Experiment [20] shares this target. Briefly: Inhibition of alpha3beta2 nAChR (unknown origin) expressed in Xenopus laevis oocytes by two-electrode voltage clamp method. The experiment is classed as cell-based.
Experiment [21] concerns the target Nicotinic acetylcholine receptor alpha9/alpha10 (Rattus norvegicus, UniProt P43144+Q9JLB5). Briefly: Inhibition of recombinant rat alpha9alpha10 nAChR expressed in Xenopus laevis oocytes assessed as inhibition of ACh-induced current by voltage clamp electrophysiology method. In kind it is cell-based.
For experiment [22], the target named is T6, Nicotinic acetylcholine receptor alpha6/alpha3/beta2/beta3. In words: Inhibition of rat alpha6/alpha3beta2beta3 nAChR expressed in Xenopus oocytes assessed as inhibition of ACh-induced current by voltage clamp electrophysiology method. The experiment is classed as cell-based.
The target in experiment [23] is T5, Neuronal acetylcholine receptor; alpha3/beta4. Briefly: Inhibition of rat alpha3beta4 nAChR expressed in Xenopus oocytes assessed as inhibition of ACh-induced current by voltage clamp electrophysiology method. The experiment is classed as cell-based.
Experiment [24] has as its target Nicotinic acetylcholine receptor alpha6/alpha3/beta4 (Rattus norvegicus, UniProt P04757+P12392+P43143). Briefly: Inhibition of rat alpha6/alpha3beta4 nAChR expressed in Xenopus oocytes assessed as inhibition of ACh-induced current by voltage clamp electrophysiology method. In kind it is cell-based.
Experiment [25] concerns the target Neuronal acetylcholine receptor; alpha3/beta2 (Rattus norvegicus, UniProt P04757+P12390). Briefly: Inhibition of rat alpha3beta2 nAChR expressed in Xenopus oocytes assessed as inhibition of ACh-induced current by voltage clamp electrophysiology method. In kind it is cell-based.
The target of experiment [26] is Neuronal acetylcholine receptor subunit alpha-7 (Rattus norvegicus, UniProt Q05941). Briefly: Inhibition of rat alpha7 nAChR expressed in Xenopus oocytes assessed as inhibition of ACh-induced current by voltage clamp electrophysiology method. The experiment is classed as cell-based.
For experiment [27], the target named is Neuronal acetylcholine receptor; alpha2/beta4 (Rattus norvegicus, UniProt P12389+P12392). Briefly: Inhibition of rat alpha2beta4 nAChR expressed in Xenopus oocytes assessed as inhibition of ACh-induced current by voltage clamp electrophysiology method. The experiment is classed as cell-based.
In experiment [28] the target is Neuronal acetylcholine receptor; alpha2/beta2 (Rattus norvegicus, UniProt P12389+P12390). In words: Inhibition of rat alpha2beta2 nAChR expressed in Xenopus oocytes assessed as inhibition of ACh-induced current by voltage clamp electrophysiology method. The experiment is classed as cell-based.
Experiment [29] concerns the target Neuronal acetylcholine receptor; alpha4/beta4 (Rattus norvegicus, UniProt P09483+P12392). Briefly: Inhibition of rat alpha4beta4 nAChR expressed in Xenopus oocytes assessed as inhibition of ACh-induced current by voltage clamp electrophysiology method. The experiment is classed as cell-based.

Active and inactive are the calls of the source. No cut-off for these calls is given here. Where a SMILES comes first, the peptide text is derived from it.

T4 sequence (P17787 whole entry): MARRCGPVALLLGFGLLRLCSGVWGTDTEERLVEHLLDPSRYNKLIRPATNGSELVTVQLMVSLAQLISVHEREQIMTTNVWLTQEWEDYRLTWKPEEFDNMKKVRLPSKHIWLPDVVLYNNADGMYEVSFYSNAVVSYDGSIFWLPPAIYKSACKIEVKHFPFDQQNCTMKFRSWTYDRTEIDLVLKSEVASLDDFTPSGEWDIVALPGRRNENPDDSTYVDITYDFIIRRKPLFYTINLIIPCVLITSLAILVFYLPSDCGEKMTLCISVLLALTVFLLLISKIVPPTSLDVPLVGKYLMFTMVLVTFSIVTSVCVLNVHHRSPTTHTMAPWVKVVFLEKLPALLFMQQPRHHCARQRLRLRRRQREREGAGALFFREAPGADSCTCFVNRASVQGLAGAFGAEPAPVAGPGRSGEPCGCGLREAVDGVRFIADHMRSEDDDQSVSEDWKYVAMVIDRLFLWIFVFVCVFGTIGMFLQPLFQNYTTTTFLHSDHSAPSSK
T4 sequence (P32297 whole entry): as the sequence (P32297 whole entry) above
Sequence of Nicotinic acetylcholine receptor alpha6/alpha3/beta4 (P04757 whole entry): as the sequence (P04757 whole entry) above
Sequence of Nicotinic acetylcholine receptor alpha6/alpha3/beta4 (P12392 whole entry): as the sequence (P12392 whole entry) above
Sequence of Nicotinic acetylcholine receptor alpha6/alpha3/beta4 (P43143 whole entry): as the sequence (P43143 whole entry) above
Sequence of Neuronal acetylcholine receptor; alpha3/beta2 (Rattus norvegicus, UniProt P04757+P12390) (P04757 whole entry): as the sequence (P04757 whole entry) above
Sequence of Neuronal acetylcholine receptor; alpha3/beta2 (Rattus norvegicus, UniProt P04757+P12390) (P12390 whole entry): as the sequence (P12390 whole entry) above

For the compound `NCC(=O)N[C@H]1CSSC[C@@H]2NC(=O)[C@H](CCCN=C(N)N)NC(=O)[C@@H]3CCCN3C(=O)[C@H](CC(=O)O)NC(=O)[C@H](CO)NC(=O)[C@H](CSSC[C@@H](C(=O)N[C@@H](CCCN=C(N)N)C(N)=O)NC(=O)[C@H](CCCN=C(N)N)NC(=O)[C@H](Cc3ccc(O)cc3)NC(=O)[C@H](CCCN=C(N)N)NC2=O)NC1=O`, the IC50 in experiment [1] was found to be 5.2 nM; in [2] it was 4700 nM.

For `C[C@@H]1NC(=O)[C@@H]2CSSC[C@H](NC(=O)CN)C(=O)N[C@@H](CSSC[C@@H](C(N)=O)NC(=O)[C@H](CCCNC(=N)N)NC(=O)[C@H](Cc3c[nH]c4ccccc34)NC1=O)C(=O)N[C@@H](CO)C(=O)N[C@@H](CC(=O)O)C(=O)N1CCC[C@H]1C(=O)N[C@@H](CCCNC(=N)N)C(=O)N2`, the IC50 was 3390 nM in experiment [3], 2000 nM in experiment [4], 595 nM in experiment [5] and 41 nM in experiment [6].

Consider `C[C@@H]1NC(=O)[C@H](Cc2ccccc2)NC(=O)[C@@H]2CSSC[C@@H](NC(=O)CN)C(=O)N[C@@H](CSSC[C@@H](C(N)=O)NC(=O)[C@H](CC(=O)O)NC(=O)[C@@H]3CCCN3C(=O)[C@H](CC(N)=O)NC(=O)[C@H]([C@@H](C)O)NC1=O)C(=O)N[C@@H](CO)C(=O)N[C@@H](Cc1ccc(O)cc1)C(=O)N1CCC[C@H]1C(=O)N1CCC[C@H]1C(=O)N2`, for which, in experiment [7], the IC50 is 750 nM.

`CC[C@H](C)[C@@H]1NC(=O)[C@@H]2CCCN2C(=O)[C@H](CO)NC(=O)[C@H](CCSC)NC(=O)[C@H](C)NC(=O)[C@H](CO)NC(=O)[C@@H]2CSSC[C@H](NC(=O)CN)C(=O)N[C@@H](CSSC[C@@H](C(N)=O)NC1=O)C(=O)N[C@@H](CO)C(=O)N[C@@H](Cc1cnc[nH]1)C(=O)N1CCC[C@H]1C(=O)N[C@@H](C(C)C)C(=O)N2`: the inhibition result in experiment [8], in experiment [9], in experiment [10] and in experiment [11] was “inactive” in each case. Besides, the inhibition result in [12] is “Active”.

`[H][C@@]12CCCN1C(=O)[C@H](Cc1cnc[nH]1)NC(=O)[C@H](CCCCN)NC(=O)[C@H](CC(N)=O)NC(=O)[C@H](CCCNC(=N)N)NC(=O)[C@]1([H])CSSC[C@H](NC(=O)CN)C(=O)N[C@@]([H])(CSSC[C@@H](C(N)=O)NC(=O)[C@H](CC(C)C)NC(=O)[C@H](CC(=O)O)NC2=O)C(=O)N[C@@H](CO)C(=O)N[C@@H](CC(=O)O)C(=O)N2CCC[C@@]2([H])C(=O)N2CCC[C@@]2([H])C(=O)N1` (HELM PEPTIDE1{G.C.C.S.D.P.P.C.R.N.K.H.P.D.L.C.[am]}$PEPTIDE1,PEPTIDE1,2:R3-8:R3|PEPTIDE1,PEPTIDE1,3:R3-16:R3$$$V2.0): the IC50 in experiment [13] came to 28.4 nM.

Take `CC[C@H](C)[C@@H]1NC(=O)[C@H](Cc2cnc[nH]2)NC(=O)[C@@H]2CCCN2C(=O)[C@H](CC(N)=O)NC(=O)[C@H](CC(N)=O)NC(=O)[C@H](C(C)C)NC(=O)[C@H](CC(N)=O)NC(=O)[C@@H]2CSSC[C@H](NC(=O)CN)C(=O)N[C@@H](CSSC[C@@H](C(N)=O)NC1=O)C(=O)N[C@@H](CO)C(=O)N[C@@H](Cc1cnc[nH]1)C(=O)N1CCC[C@H]1C(=O)N[C@@H](C)C(=O)N2` (HELM PEPTIDE1{G.C.C.S.H.P.A.C.N.V.N.N.P.H.I.C.[am]}$PEPTIDE1,PEPTIDE1,2:R3-8:R3|PEPTIDE1,PEPTIDE1,3:R3-16:R3$$$V2.0): the inhibition result in experiment [14], in experiment [16] and in experiment [19] was “Active” throughout. The figures for the IC50 in [15], in [17] and in experiment [20] were 97 nM, 103 nM and 33 nM, respectively. For the same compound, in [18], the inhibition turned out to be 22%.

`CC(C)C[C@@H]1NC(=O)[C@H](CCC(=O)O)NC(=O)[C@@H]2CCCN2C(=O)[C@H](Cc2cnc[nH]2)NC(=O)[C@H](CC(N)=O)NC(=O)[C@H](C(C)C)NC(=O)[C@H](CO)NC(=O)[C@@H]2CSSC[C@H](NC(=O)CN)C(=O)N[C@@H](CSSC[C@@H](C(N)=O)NC1=O)C(=O)N[C@@H](CO)C(=O)N[C@@H](Cc1cnc[nH]1)C(=O)N1CCC[C@H]1C(=O)N[C@@H](C)C(=O)N2` (HELM PEPTIDE1{G.C.C.S.H.P.A.C.S.V.N.H.P.E.L.C.[am]}$PEPTIDE1,PEPTIDE1,2:R3-8:R3|PEPTIDE1,PEPTIDE1,3:R3-16:R3$$$V2.0): the IC50 in experiment [21] stood at 6.9 nM.

As to `[H][C@@]12CCCN1C(=O)[C@]1([H])CCCN1C(=O)[C@]([H])([C@@H](C)O)NC(=O)[C@H](CO)NC(=O)[C@]1([H])CSSC[C@@H](C(N)=O)NC(=O)[C@H](Cc3ccc(O)cc3)NC(=O)[C@H](CC(C)C)NC(=O)[C@H](C(C)C)NC(=O)[C@H](C)NC(=O)[C@]([H])(CSSC[C@H](NC(=O)CN)C(=O)N1)NC2=O` (HELM PEPTIDE1{G.C.C.S.T.P.P.C.A.V.L.Y.C.[am]}$PEPTIDE1,PEPTIDE1,2:R3-8:R3|PEPTIDE1,PEPTIDE1,3:R3-13:R3$$$V2.0), the IC50 in experiment [22] amounted to 0.26 nM; in experiment [23], 27.7 nM; in experiment [24], 1.54 nM; in experiment [25], 5.72 nM; in [26], 272 nM; in experiment [27], 121 nM. In addition, the figures for the IC50 in experiment [28] and in experiment [29] were 800 nM and 69.9 nM, respectively.
